# According to PubChem BioAssay AID2060606 (Molecular Pharmacology Branch, DTP, NCI, 2025):
# Tested on: 922993-354-T-J3-PDC complex spheroids, viability, % test/control
# Experiment: Anticancer human tumor 922993-354-T-J3-PDC patient-derived endometrial carcinoma cell line growth inhibition [CLK]
# Conditions: for IC50: curve of first compound; for viability, T/C: stronger effect = lower value
# Outline: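 Patient-derived tumor cells grown as complex spheroids with HUVEC endothelial cells and mesenchymal stem cells, treated with drug combinations. Concentrations descend in half-log steps from near clinical Cmax, or from 10 microM if Cmax unknown.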
# [1] = second compound 0.0316 µM, first compound 0.0316 µM
# [2] = second compound 0.0316 µM, first compound 0.1 µM
# [3] = second compound 0.0316 µM, first compound 0.316 µM
# [4] = second compound 0.0316 µM, first compound 1 µM
# [5] = second compound 0.1 µM, first compound 0.0316 µM
# [6] = second compound 0.1 µM, first compound 0.1 µM
# [7] = second compound 0.1 µM, first compound 0.316 µM
# [8] = second compound 0.1 µM, first compound 1 µM
# [9] = second compound 0.316 µM, first compound 0.0316 µM
# [10] = second compound 0.316 µM, first compound 0.1 µM
# [11] = second compound 0.316 µM, first compound 0.316 µM
# [12] = second compound 0.316 µM, first compound 1 µM
# [13] = second compound 1 µM, first compound 0.0316 µM
# [14] = second compound 1 µM, first compound 0.1 µM
# [15] = second compound 1 µM, first compound 0.316 µM
# [16] = second compound 1 µM, first compound 1 µM
# [17] = second compound 3.16 µM, first compound 0.0316 µM
# [18] = second compound 3.16 µM, first compound 0.1 µM
# [19] = second compound 3.16 µM, first compound 0.316 µM
# [20] = second compound 3.16 µM, first compound 1 µM
# [21] = second compound 10 µM, first compound 0.0316 µM
# [22] = second compound 10 µM, first compound 0.1 µM
# [23] = second compound 10 µM, first compound 0.316 µM
# [24] = second compound 10 µM, first compound 1 µM
# [25] = second compound 0.0316 µM, first compound 3.16 µM
# [26] = second compound 0.0316 µM, first compound 10 µM
# [27] = second compound 0.1 µM, first compound 3.16 µM
# [28] = second compound 0.1 µM, first compound 10 µM
# [29] = second compound 0.316 µM, first compound 3.16 µM
# [30] = second compound 0.316 µM, first compound 10 µM
# [31] = second compound 1 µM, first compound 3.16 µM
# [32] = second compound 1 µM, first compound 10 µM
# [33] = second compound 3.16 µM, first compound 3.16 µM
# [34] = second compound 3.16 µM, first compound 10 µM
# [35] = second compound 10 µM, first compound 3.16 µM
# [36] = second compound 10 µM, first compound 10 µM
# 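Further: spheroids exposed to the agents for 7 days before readout.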
structure (smiles),measurement,setting,value
COc1c(OCCCN2CCOCC2)ccc2c3n(c(=NC(=O)c4cnc(N)nc4)nc12)CCN3 + CN1CCN(c2cc(C(=O)Nc3cc4cc(-c5cnn(C)c5)ccc4cn3)ccn2)CC1,IC50,second compound 0.0316 µM,148 nM
same,IC50,second compound 0.1 µM,151 nM
same,IC50,second compound 0.316 µM,< 3.16 nM
same,IC50,second compound 1 µM,< 3.16 nM
same,IC50,second compound 3.16 µM,< 3.16 nM
same,IC50,second compound 10 µM,< 3.16 nM
same,"viability, T/C","second compound 0.0316 µM, first compound 0.00316 µM",112%
same,"viability, T/C","second compound 0.0316 µM, first compound 0.01 µM",116%
same,"viability, T/C",[1],86.5%
same,"viability, T/C",[2],59.7%
same,"viability, T/C",[3],32.2%
same,"viability, T/C",[4],9.62%
same,"viability, T/C","second compound 0.1 µM, first compound 0.00316 µM",91.7%
same,"viability, T/C","second compound 0.1 µM, first compound 0.01 µM",99.9%
same,"viability, T/C",[5],89.9%
same,"viability, T/C",[6],58.1%
same,"viability, T/C",[7],32.4%
same,"viability, T/C",[8],12.1%
same,"viability, T/C","second compound 0.316 µM, first compound 0.00316 µM",48.1%
same,"viability, T/C","second compound 0.316 µM, first compound 0.01 µM",47.9%
same,"viability, T/C",[9],39.8%
same,"viability, T/C",[10],18.8%
same,"viability, T/C",[11],6.2%
same,"viability, T/C",[12],2.87%
same,"viability, T/C","second compound 1 µM, first compound 0.00316 µM",0.13%
same,"viability, T/C","second compound 1 µM, first compound 0.01 µM",1.13%
same,"viability, T/C",[13],0.12%
same,"viability, T/C",[14],0.08%
same,"viability, T/C",[15],1.11%
same,"viability, T/C",[16],0.77%
same,"viability, T/C","second compound 3.16 µM, first compound 0.00316 µM",0.42%
same,"viability, T/C","second compound 3.16 µM, first compound 0.01 µM",0.12%
same,"viability, T/C",[17],0.38%
same,"viability, T/C",[18],0.15%
same,"viability, T/C",[19],1.16%
same,"viability, T/C",[20],1.38%
same,"viability, T/C","second compound 10 µM, first compound 0.00316 µM",0.08%
same,"viability, T/C","second compound 10 µM, first compound 0.01 µM",0.15%
same,"viability, T/C",[21],1.41%
same,"viability, T/C",[22],0.15%
same,"viability, T/C",[23],3.12%
same,"viability, T/C",[24],2.42%
CCCS(=O)(=O)Nc1ccc(F)c(C(=O)c2c[nH]c3ncc(-c4ccc(Cl)cc4)cc23)c1F + CN1CCN(c2cc(C(=O)Nc3cc4cc(-c5cnn(C)c5)ccc4cn3)ccn2)CC1,IC50,second compound 0.0316 µM,> 10000 nM
same,IC50,second compound 0.1 µM,9220 nM
same,IC50,second compound 0.316 µM,< 31.6 nM
same,IC50,second compound 1 µM,< 31.6 nM
same,IC50,second compound 3.16 µM,< 31.6 nM
same,IC50,second compound 10 µM,< 31.6 nM
same,"viability, T/C",[1],95.3%
same,"viability, T/C",[2],113%
same,"viability, T/C",[3],118%
same,"viability, T/C",[4],97.9%
same,"viability, T/C",[25],96.6%
same,"viability, T/C",[26],65.3%
same,"viability, T/C",[5],107%
same,"viability, T/C",[6],90.5%
same,"viability, T/C",[7],91.5%
same,"viability, T/C",[8],87.6%
same,"viability, T/C",[27],86.2%
same,"viability, T/C",[28],46.7%
same,"viability, T/C",[9],46.6%
same,"viability, T/C",[10],40.4%
same,"viability, T/C",[11],43.4%
same,"viability, T/C",[12],43.9%
same,"viability, T/C",[29],44.6%
same,"viability, T/C",[30],26.7%
same,"viability, T/C",[13],0.14%
same,"viability, T/C",[14],0.16%
same,"viability, T/C",[15],0.15%
same,"viability, T/C",[16],0.15%
same,"viability, T/C",[31],1.71%
same,"viability, T/C",[32],1.78%
same,"viability, T/C",[17],0.09%
same,"viability, T/C",[18],0.13%
same,"viability, T/C",[19],0.82%
same,"viability, T/C",[20],0.14%
same,"viability, T/C",[33],2.22%
same,"viability, T/C",[34],1.32%
same,"viability, T/C",[21],0.18%
same,"viability, T/C",[22],0.16%
same,"viability, T/C",[23],1.26%
same,"viability, T/C",[24],0.19%
same,"viability, T/C",[35],1.53%
same,"viability, T/C",[36],0.25%
CC1COCCN1c1cc(C2(S(C)(=N)=O)CC2)nc(-c2ccnc3[nH]ccc23)n1 (stereo unspecified) + CNC(=O)c1ccc(Nc2nc(OC3CCCC3)c3c(-c4ccc5nc(C)oc5c4)c[nH]c3n2)c(OC)c1,IC50,second compound 0.0316 µM,> 10000 nM
same,IC50,second compound 0.1 µM,> 10000 nM
same,IC50,second compound 0.316 µM,> 10000 nM
same,IC50,second compound 1 µM,< 31.6 nM
same,IC50,second compound 3.16 µM,< 31.6 nM
same,IC50,second compound 10 µM,< 31.6 nM
same,"viability, T/C",[1],88.2%
same,"viability, T/C",[2],108%
same,"viability, T/C",[3],98.8%
same,"viability, T/C",[4],115%
same,"viability, T/C",[25],106%
same,"viability, T/C",[26],104%
same,"viability, T/C",[5],111%
same,"viability, T/C",[6],119%
same,"viability, T/C",[7],115%
same,"viability, T/C",[8],116%
same,"viability, T/C",[27],101%
same,"viability, T/C",[28],80.5%
same,"viability, T/C",[9],67.4%
same,"viability, T/C",[10],56%
same,"viability, T/C",[11],55%
same,"viability, T/C",[12],66.9%
same,"viability, T/C",[29],75.9%
same,"viability, T/C",[30],40.5%
same,"viability, T/C",[13],35.2%
same,"viability, T/C",[14],33.1%
same,"viability, T/C",[15],34.1%
same,"viability, T/C",[16],34.7%
same,"viability, T/C",[31],27%
same,"viability, T/C",[32],14.7%
same,"viability, T/C",[17],34.1%
same,"viability, T/C",[18],32.8%
same,"viability, T/C",[19],31.1%
same,"viability, T/C",[20],32.3%
same,"viability, T/C",[33],21.1%
same,"viability, T/C",[34],9.92%
same,"viability, T/C",[21],32%
same,"viability, T/C",[22],27.5%
same,"viability, T/C",[23],28.2%
same,"viability, T/C",[24],27.5%
same,"viability, T/C",[35],20.6%
same,"viability, T/C",[36],9.29%
